Test results taken from patent US4762852A, “Benzodioxepanne, process for the synthesis thereof and use thereof” (Societe d'Etudes Scientifiques et Industrielles de l'Ile de …, priority 1985, dated 1988).
Like-named read-outs stand apart in the source and are kept apart here. Values belong to the compound of their own block, whether it stands above or below them.

Key:
[1] = system: stereotypies caused in rats by apomorphine; test: antagonism of stereotypies caused in rats by 0.5 mg/kg subcutaneous apomorphine (Europ. J. Pharmacol., 50, 291-300, 1978); assay type: in vivo; conditions: rat
Experimental: (2) The compound of the invention was a powerful anti-dopaminergic agent at the level of the central nervous system. Indeed, in the test in respect of stereotypies caused in rats by apomorphine, a dopaminergic agonistic agent, the compound antogonized that behavioral response at very low levels. Thus, when stereotypies were caused by 0.5 mg/kg of subcutaneous apomorphine, the inhibitor-50 dose of the compound was 0.52 mg/kg intraperitoneally. This test was conducted in accordance with the procedure in Europ. J. Pharmacol., 50, pp. 291-300 (1978). […] The reference compound is disclosed in U.S. Pat. Nos. 4,186,135 (Example 43) and 4,248,885. In another test, the inhibitor doses 50 of the compound were evaluated according to Europ. J. Pharm. 50, pp. 291-300 (1978), the compound being administered at different times (15, 30, 60, 120 and 360 minutes) prior to administration of the agonistic agent, in this case apomorphine, in a dose of 0.5 mg/kg subcutaneous. It is thus possible to judge the power of the antagonism produced by the compound at those different times and also to evaluate the duration of the effect of the compound. […] Catalepsy appeared in fact, 11 minutes after subcutaneous injection of the compound and lasted for more than 5 hours and up to 12 hours in a rat, depending on the method of observation of the phenomenon.

[2] = system: stereotypies caused in rats by apomorphine; test: antagonism of stereotypies caused by 1.25 mg/kg intravenous apomorphine (Arzn. Forsch. 10, 1003-1005, 1960); assay type: in vivo; conditions: compound subcutaneous, apomorphine 1.25 mg/kg intravenous; for ED50: Rattus norvegicus, sc, read-out: ID50, apomorphine stereotypies
Excerpt: (2) The compound of the invention was a powerful anti-dopaminergic agent at the level of the central nervous system. Indeed, in the test in respect of stereotypies caused in rats by apomorphine, a dopaminergic agonistic agent, the compound antogonized that behavioral response at very low levels. […] […] […] The reference compound is disclosed in U.S. Pat. Nos. 4,186,135 (Example 43) and 4,248,885.

[3] = system: stereotypies caused in a rat by amphetamine; test: antagonism of stereotypies caused in a rat by amphetamine, 10 mg/kg intravenous (Arz. Forsch. 11, 932-938, 1961); assay type: in vivo; conditions: sc
[4] = system: rat; test: cataleptigenic effect (Arz. Forsch. 12, 964-968, 1962); assay type: in vivo; conditions: sc, subcutaneous
Experimental: (§1) The cataleptigenic dose 50, as determined in accordance with Arz. Forsch. 12, pp. 964-968 (1962), was 5.3 mg/kg subcutaneously in a rat. Another test gave a value which was slightly higher, 8.5 mg/kg subcutaneous, also in a rat.

[5] = target: dopaminergic D2 receptors (Homo sapiens, UniProt P14416); test: in-vitro binding to dopaminergic D2 receptors, ligand 3H-spiperone; conditions: read-out: IC50, D2 receptor binding
dopaminergic D2 receptors, sequence (P14416 whole entry): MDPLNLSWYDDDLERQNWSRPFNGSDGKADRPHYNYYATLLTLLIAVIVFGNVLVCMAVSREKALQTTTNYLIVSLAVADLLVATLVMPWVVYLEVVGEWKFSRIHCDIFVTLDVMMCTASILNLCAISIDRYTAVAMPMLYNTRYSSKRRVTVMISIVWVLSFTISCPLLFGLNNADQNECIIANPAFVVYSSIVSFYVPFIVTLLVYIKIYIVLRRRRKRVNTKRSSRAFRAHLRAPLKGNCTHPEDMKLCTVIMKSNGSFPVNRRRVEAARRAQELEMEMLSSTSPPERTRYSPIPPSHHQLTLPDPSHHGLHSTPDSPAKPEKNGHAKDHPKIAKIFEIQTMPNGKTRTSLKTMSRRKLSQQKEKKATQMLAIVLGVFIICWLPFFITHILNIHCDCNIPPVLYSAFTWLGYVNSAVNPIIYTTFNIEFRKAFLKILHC
Excerpt: (1) The compound bound very strongly in-vitro to dopaminergic D2 receptors.

[6] = target: D1 receptor (Homo sapiens, UniProt P21728); test: in-vitro binding to D1 receptor against 3H-piflutixol; conditions: second of two values
D1 receptor, sequence (P21728 whole entry): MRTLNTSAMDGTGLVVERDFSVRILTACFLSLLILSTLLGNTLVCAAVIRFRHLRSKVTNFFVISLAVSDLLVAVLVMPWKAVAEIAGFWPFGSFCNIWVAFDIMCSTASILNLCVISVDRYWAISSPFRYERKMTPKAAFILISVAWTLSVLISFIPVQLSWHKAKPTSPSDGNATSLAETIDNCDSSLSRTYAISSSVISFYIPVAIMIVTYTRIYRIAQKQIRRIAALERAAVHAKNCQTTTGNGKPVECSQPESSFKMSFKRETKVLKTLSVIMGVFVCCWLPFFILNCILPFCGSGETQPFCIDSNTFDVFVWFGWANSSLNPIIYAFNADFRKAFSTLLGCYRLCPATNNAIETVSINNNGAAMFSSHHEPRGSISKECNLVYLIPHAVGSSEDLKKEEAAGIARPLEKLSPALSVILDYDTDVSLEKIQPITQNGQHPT

[7] = partition coefficient; assay type: physicochemical
[8] = solubility; assay type: physicochemical
[9] = system: stereotypies in relation to amphetamine in a rat; test: antagonism of amphetamine stereotypies in a rat, amphetamine injected intraperitoneally; assay type: in vivo; conditions: read-out: ID50, amphetamine stereotypies
[10] = system: rat; test: cataleptigenic effect, another test; assay type: in vivo; conditions: sc, subcutaneous, read-out: cataleptigenic dose 50
Experimental: as §1

[11] = system: rat; test: kinetics of the cataleptigenic effect; assay type: in vivo; conditions: after subcutaneous injection
Experimental: In another test, the inhibitor doses 50 of the compound were evaluated according to Europ. J. Pharm. 50, pp. 291-300 (1978), the compound being administered at different times (15, 30, 60, 120 and 360 minutes) prior to administration of the agonistic agent, in this case apomorphine, in a dose of 0.5 mg/kg subcutaneous. It is thus possible to judge the power of the antagonism produced by the compound at those different times and also to evaluate the duration of the effect of the compound. […] Catalepsy appeared in fact, 11 minutes after subcutaneous injection of the compound and lasted for more than 5 hours and up to 12 hours in a rat, depending on the method of observation of the phenomenon.

[12] = system: spontaneous motility of a mouse; test: reduction of spontaneous motility of a mouse, photoelectric method (J. Pharm. Exp. Ther. 101, 156-162, 1951); assay type: in vivo; conditions: intraperitoneal; for ED50: ip
Experimental: (§2) Exp. Ther. 101, pp. 156-162 (1951).
The kinetics of the inhibitor effect of the compound were studied in mice by evaluation of the inhibitor doses 50 at different distances from intraperitoneal injection of the compound. The procedure used was the photoelectric method described in J. Pharm. Exp. Ther. 101, pp. 156-162 (1951). […] Then, the variation in the ID50 between 0.55 and 0.9 indicated persistence of the effect up to 5 hours. The effect then became less clear, but could still be observed more than 5 hours after administration, which is in accordance with the duration attributed to the cataleptigenic effect.

[13] = system: spontaneous motility of a mouse; test: reduction of spontaneous motility of a mouse, Activograph Method; assay type: in vivo; conditions: ip, intraperitoneal, read-out: ID50, reduction of spontaneous motility
Excerpt: as §2

[14] = system: vigilance; test: vigilance of treated animals at higher neuroleptic doses; assay type: in vivo; conditions: higher neuroleptic doses which reduce motor function
Experimental: The compound of the invention has the pharmacological characteristics of a powerful neuroleptic, acting rapidly and in a long-term fashion, and, consequently, can be applied in states of agitation of acute and chronic psychoses. For this and other purposes the daily therapeutic dosage can be from about 5 to 50 mg/day in one or more doses, depending upon the severity of the psychoses. The compound of the invention can be administered in any number of conventional forms such as capsules, tablets, pills, in granulated form or as an injectable solution. Many methods for compounding these preparations are well-known to the art. Substances (or carriers) which are inert relative to the compounds of the invention can be used in these preparations, such as lactose, magnesium stearate, starch, talc, cellulose, levilite, alkali metal lauryl-sulphates, saccharose and other vehicles and carriers commonly employed in pharamaceutical preparations. The examples which follow illustrate several possible pharmaceutical preparations.

[15] = ip, compound intraperitoneal, apomorphine 0.5 mg/kg subcutaneous, read-out: inhibitor-50 dose (ID50), apomorphine stereotypies

Structure (SMILES): CCN1CCCC1CNC(=O)c1cc(S(=O)(=O)CC)cc2c1OCCCO2 (stereo not shown) [reference compound, N-(1-ethyl-2-pyrrolidinylmethyl) 8-ethylsulphonyl-1,5-benzodioxepanne-6-carboxamide, reference compound]
ED50 [1, 15]: 36.4 mg/kg
ED50 [2]: 156 mg/kg
ED50 ([3]; Rattus norvegicus, subcutaneous, amphetamine route and dose not stated, read-out: ID50, amphetamine): 39.4 mg/kg
ED50 ([4]; Rattus norvegicus, which of the two catalepsy tests is not stated, read-out: ED50, cataleptigenic effect): 59.5 mg/kg

IC50 [5]: 0.00316 µM
IC50 [6]: 63.1 µM
logP [7]: 0.519
solubility in dilute acids ([8]; dilute acids): Soluble
solubility in cold ethyl acetate ([8]; ethyl acetate, cold): soluble when cold in 30 volumes
solubility in hot ethyl acetate ([8]; hot ethyl acetate (2 volumes)): Highly soluble
solubility in hot methanol ([8]; hot methanol (2 volumes)): Highly soluble
solubility in cold methanol ([8]; methanol, cold): very weakly soluble
Structure (SMILES): CCS(=O)(=O)c1cc2c(c(C(=O)NCC3CCCN3CC3=CCCCC3)c1)OCCCO2 (stereo not shown) [compound of the invention, N-(1-cyclohexenylmethyl-2 pyrrolidylmethyl)-8-ethylsulphonyl-1,5-benzodioxepanne 6-carboxamide]
ED50 [1, 15]: 0.52 mg/kg
ED50 ([1]; sc, 0.25 h, compound subcutaneous 15 minutes before apomorphine 0.5 mg/kg subcutaneous, read-out: ID50, apomorphine stereotypies, 15 minutes after injection): 0.066 mg/kg
ED50 ([1]; sc, compound subcutaneous, apomorphine 0.5 mg/kg subcutaneous, read-out: ID50, apomorphine stereotypies): 0.039 mg/kg
ED50 [2]: 0.092 mg/kg
ID50, apomorphine stereotypies ([2]; rat): 0.082 mg/kg
ED50 ([3]; rat, compound subcutaneous, amphetamine 10 mg/kg intravenous, read-out: inhibitor dose 50 (ID50), amphetamine stereotypies): 0.062 mg/kg
ED50 ([9]; ip, amphetamine intraperitoneal, other experimental conditions): 0.4 mg/kg
ED50 ([9]; sc, compound subcutaneous, action already found at the 12th minute): 0.4 mg/kg
ED50 ([4]; rat, read-out: cataleptigenic dose 50): 5.3 mg/kg
ED50 [10]: 8.5 mg/kg
time to appearance of catalepsy [11]: 11 min
time after administration at which inhibitor effect on motility could still be observed [12]: more than 5 hours
ED50 ([12]; 5 min, 5 minutes after injection, read-out: ID50, reduction of motility after 5 minutes): 0.69 mg/kg
ED50 ([12]; photoelectric method, read-out: ID50, reduction of spontaneous motility): 0.58 mg/kg
ED50 [13]: 0.93 mg/kg
vigilance at higher neuroleptic doses [14]: retain a certain degree of vigilance
